# Results as given in patent US8946201B2, “Methods for inhibiting TGF-β” (Saint Louis University, priority 2007, dated 2015).
# Legend:
# TβR-I and TβR-II [1] = experiment: 125I-TGF-β1 affinity labeling, BAEC; format: cell-based, bovine
# Description: (B, C, D, E) Cells were treated with increasing concentrations of cholesterol in the presence (C) and absence (B, D, E) of 0.2% β-CD, as indicated. After 1 hr at 37° C., ^125I-TGF-β1 affinity labeling of TβR-I and TβR-II in cells was performed at 0° C. ^125I-TGF-β1 affinity-labeled TβR-I and TβR-II were analyzed by 7.5% SDS-PAGE and autoradiography or quantified with a PhosphoImager. A representative of a total of three analyses is shown (top). The bracket indicates the locations of ^125I-TGF-β affinity-labeled TβR-I and TβR-II. The relative intensities of ^125I-TGF-β1 affinity-labeled TβR-I and TβR-II in cells treated without cholesterol were taken as 100%. The quantitative data from three analyses is shown (bottom).
# (A, B, C, D, E, F) Cells were treated with LDL (50 μg protein/ml), VLDL (5 μg protein/ml), HDL (50 μg protein/ml), lipoprotein (a) (10 μg/ml), fluvastatin (F; 1 μM), lovastatin (L; 1 μM), nystatin (Nys; 25 μg/ml), β-CD (β-CD; 8 mM), cholest-4-en-3-one (3-one; 50 μg/ml) or cholesterol (Chol; 50 μg/ml) alone or combination of two. After 1 hr at 37° C. or 16 hr at 37° C. (for fluvastatin and lovastatin), ^125I-TGF-β1 affinity labeling of cell-surface TGF-β receptors was performed at 0° C. ^125I-TGF-β1 affinity-labeled TβR-I and TβR-II were analyzed by 7.5% SDS-PAGE and autoradiography. The relative intensities of TβR-I and TβR-II were quantified with a PhosphoImager. The ratio of ^125I-TGF-β1 binding to TβR-II and TβR-I were estimated. The numbers above the lane sequence denote the ratio of TβR-II/TβR-I.
# After cross-linking, cell lysates were analyzed by 7.5% SDS-PAGE and autoradiography or quantified by a PhosphoImager. For all experiments, cholesterol or cholesterol derivatives were prepared as the stock solution with a concentration of 25 mg/ml in ethanol. The final concentration of ethanol in the medium was 0.2% (by vol.).
# TβR-I and TβR-II [2] = experiment: Lipid raft / non-lipid raft localization by sucrose density gradient ultracentrifugation, Mv1Lu cells; format: cell-based, mink; settings: for plasma membrane microdomain localization of TβR-II (FIG. 5F): 1 μM statin 16 hr, nystatin 25 μg/ml or cholesterol 50 μg/ml 1 hr
# Description: (A, B, C, D) Cells were treated with or without 50 μg/ml cholesterol (A,B,C,D) or several concentrations of cholesterol, as indicated in the presence and absence of 1% β-CD (E) at 37° C. for 1 hr and further incubated with (C,D) and without (A,B) 50 pM TGF-β1 for 1 hr. The cell lysates from these treated cells were subjected to sucrose density gradient ultracentrifugation. After ultracentrifugation, fractions were collected and analyzed by 7.5% SDS-PAGE followed by Western blot analysis using antibodies to TβR-I, TβR-II and caveolin-1. […] Fractions 4 and 5 represent fractions containing lipid rafts/caveolae whereas fractions 7 and 8 represent non-lipid raft fractions.
# (F, G) Cells were treated with or without 1 μM lovastatin/fluvastatin or nystatin (25 μg/ml)/cholesterol (50 μg/ml) at 37° C. for 16 hr or 1 hr, respectively. The treated cells were directly analyzed by sucrose density gradient ultracentrifugation analysis (F) or further incubated with 50 pM TGF-β at 37° C. for several time periods as indicated (G). Western blot analysis of the sucrose density gradient fractions (F) and of TGF-β1-treated cell lysates (G) was performed using antibody to TβR-II. The relative levels of TβR-II and α-actin were quantified by densitometry. Fractions ⅘ and 7 represent lipid raft/caveolae and non-lipid raft fractions, respectively. The asterisk (*) indicates the increased level of TβR-II in the fraction (F). The ratio of the relative intensities of TβR-II and α-actin in cells treated without TGF-β1 was taken as 100% of the TβR-II level. A representative of a total of three independent analyses is shown (G, top). The quantitative data from three independent analyses is shown (G, bottom). The data bar represents the mean±S.D.
# Mv1Lu, CHO-K1, or NRK cells were grown to near confluence in 100-mm dishes (5-10×10^6 per dish). Cells were incubated with cholesterol ([…]) at 37° C. for 1 hours and then incubated with TGF-β1 (100 pM) for 1 hr. After two washes with ice-cold phosphate-buffered saline, cells were scraped into 0.85 ml of 500 mM sodium carbonate, pH 11.0. Homogenization was carried out with 10 strokes of a tight-fitting Dounce homogenizer followed by three 20-s bursts of ultrasonic disintegrator, (Soniprep 150; Fisher Scientific) to disrupt cellular membranes as described previously (32). The homogenates were adjusted to 45% sucrose by addition of 0.85 ml of 90% sucrose in 25 mM 2-(N-morpholino) ethanesulfonic acid, pH 6.5, 0.15 M NaCl (MBS), and placed at the bottom of an ultracentrifuge tube. […] Ten 0.5-ml fractions were collected from the top of the tubes, and a portion of each fraction was analyzed by SDS-PAGE followed by Western blot analysis using antibodies to TβR-I and TβR-II and caveolin-1. […]
SMILES,"ratio of TβR-II/TβR-I (TβR-I and TβR-II [1]; 1 μM, 37° C. 16 hr, BAEC cells, 2.47 untreated)",plasma membrane microdomain localization of TβR-II (FIG. 5F) (TβR-I and TβR-II [2]),"increase of 125I-TGF-β1 binding to TβR-I (TβR-I and TβR-II [1]; 50 μg/ml, 1 hr, BAEC)","ratio of TβR-II/TβR-I (TβR-I and TβR-II [1]; 50 μg/ml, 1 hr, BAEC, 3.5 untreated)","effect on binding of 125I-TGF-β1 to TβR-II (TβR-I and TβR-II [1]; increasing concentrations, 1 hr, BAEC)","localization of TβR-I and TβR-II in plasma membrane fractions (TβR-I and TβR-II [2]; 50 μg/ml, 1 hr, fractions 4 and 5)"
"CC[C@H](C)C(=O)O[C@H]1C[C@@H](C)C=C2C=C[C@H](C)[C@H](CC[C@@H]3C[C@@H](O)CC(=O)O3)[C@H]21 [lovastatin, reference compound]",2.6,increased the localization of TβR-II in non-lipid raft microdomains,–,–,–,–
"C[C@@H]1[C@H](O)[C@@H](C)/C=C/C=C/CC/C=C/C=C/C=C/C=C/C(O[C@H]2O[C@H](C)[C@@H](O)[C@H](N)[C@@H]2O)CC2O[C@](O)(CC(O)C(O)CCC(O)CC(O)CC(O)CC(=O)O[C@H]1C)CC(O)C2C(=O)O (some centres unmarked) [nystatin, reference compound]",–,increased the localization of TβR-II in non-lipid raft microdomains,–,–,–,–
CC(C)CCC[C@@H](C)[C@H]1CC[C@H]2[C@@H]3CC=C4C[C@@H](O)CC[C@]4(C)[C@H]3CC[C@]12C [cholesterol],–,increased the localization of TβR-II in lipid rafts/caveolae,~2.5 fold,1.4,did not significant alter,enriched in the lipid raft/caveolae fractions
